PMC8856928, “A new strategy for hit generation: Novel in cellulo active inhibitors of CYP121A1 from Mycobacterium tuberculosis via a combined X-ray crystallographic and phenotypic screening approach (XP screen)” (European Journal of Medicinal Chemistry, 2022)
Structures can show the parent of a compound that is named as a salt. Where two headings read alike, the source gives them in different places.

Key:
Mtb H37Rv = test: Antimycobacterial activity assay (resazurin colorimetric, whole-cell); assay type: cell-based, Mycobacterium tuberculosis; conditions: for MIC90: Mycobacterium tuberculosis, H37RV; for Activity against Mtb: three growth media
CYP121A1 [1] = target: T1, CYP121A1 (Mycobacterium tuberculosis, UniProt P9WPP7); test: biochemical; assay type: binding; conditions: for Kd: UV-Vis titration, compounds screened at 300 μM, Type II Soret shift, 28 °C
T1 construct: made in house

Mtb strain H37Rv = conditions: comparison with 61; cited from earlier work
CYP121A1 [2] = target: T1, CYP121A1; assay type: biochemical; conditions: 100 μM compound + 100 μM cYY
Mtb CYP121A1 [3] = target: T2, Mtb CYP121A1 (Mycobacterium tuberculosis, UniProt P9WPP7); test: Differential scanning fluorimetry (DSF); assay type: binding; conditions: read-out: ΔTm
T2 construct: His6; made in house

CYP121A1 [4] = target: T1, CYP121A1; test: X-ray crystallographic screening (crystal soaking); assay type: binding; conditions: soaking experiments
Mtb CYP121A1 [5] = target: T2, Mtb CYP121A1; test: biochemical; assay type: binding; conditions: 25 °C, 50 μM CYP121A1, 10% DMSO-d6; read-out: Kd (ITC)
CYP121A1 [6] = target: T1, CYP121A1; assay type: binding; conditions: Kd for cYY over the cYY control
[7] = 168 h, Mtb H37Rv, 7H9 with low BSA (0.05% albumin, ADN), one week, read-out: MIC90 7H9-Low BSA
[8] = 168 h, Mtb H37Rv, Middlebrook 7H9 with 10% ADC (BSA rich), one week, read-out: MIC90 c7H9
[9] = 336 h, Mtb H37Rv, Mycobacterial Minimal Medium with cholesterol, two weeks, read-out: MIC90 MMM-Ch
[10] = medium not specified or span over the three growth media tested, read-out: MIC90 against Mtb strain H37Rv

T1 sequence (P9WPP7 whole entry): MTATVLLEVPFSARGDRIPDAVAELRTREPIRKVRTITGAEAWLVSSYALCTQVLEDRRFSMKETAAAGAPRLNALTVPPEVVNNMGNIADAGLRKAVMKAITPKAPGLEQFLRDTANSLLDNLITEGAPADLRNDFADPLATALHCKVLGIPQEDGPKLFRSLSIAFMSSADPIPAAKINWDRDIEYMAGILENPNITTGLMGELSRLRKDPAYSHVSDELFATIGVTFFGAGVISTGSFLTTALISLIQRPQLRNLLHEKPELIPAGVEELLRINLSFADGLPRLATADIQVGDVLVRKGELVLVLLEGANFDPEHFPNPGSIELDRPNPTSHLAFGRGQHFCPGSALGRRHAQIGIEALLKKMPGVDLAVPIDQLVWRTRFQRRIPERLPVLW
T2 sequence (P9WPP7 whole entry): as above

| SMILES | MIC90 (Mtb H37Rv; [7]) | MIC90 (Mtb H37Rv; [8]) | MIC90 (Mtb H37Rv; [9]) | further results |
| --- | --- | --- | --- | --- |
| CN1CCN(c2nccc(CCc3c[nH]c4ccc(Br)cc34)n2)CC1 [Compound 23, 5-Bromo-3-(2-(2-(4-methylpiperazin-1-yl)pyrimidin-4-yl)ethyl)-1H-indole] | 25 µM | 100 µM | 12.5 µM | MIC90 (Mtb H37Rv; [10]): 12.5 to 50 µM |
| Fc1ccc2[nH]cc(CCc3ccnc(N4CCOCC4)n3)c2c1 [Compound 51, 4-(4-(2-(5-Fluoro-1H-indol-3-yl)ethyl)pyrimidin-2-yl)morpholine] | 50 µM | 25 µM | 25 µM | Activity against Mtb (Mtb H37Rv): moderate inhibitors |
| FC(F)(F)Oc1ccc2[nH]cc(CCc3ccncc3)c2c1 [Compound 44, 3-(2-(Pyridin-4-yl)ethyl)-5-(trifluoromethoxy)-1H-indole] | – | – | – | Kd (CYP121A1 [1]): 12.7 ± 2.3 µM |
| Brc1ccc2[nH]cc(CCc3ccncc3)c2c1 [Compound 9] | – | – | – | Kd (CYP121A1 [1]): 3.8 ± 0.5 µM |
| CC(=O)n1cc(CCc2ccnc(N3CCOCC3)n2)c2ccccc21 [Compound 64, 1-(3-(2-(2-Morpholinopyrimidin-4-yl)ethyl)-1H-indol-1-yl)ethan-1-one] | > 400 µM | > 400 µM | > 400 µM | Activity against Mtb (Mtb H37Rv): essentially lost all activity |
| Clc1ccc(COC(Cn2ccnc2)c2ccc(Cl)cc2Cl)c(Cl)c1 (centres unmarked) [miconazole] | – | – | – | MIC90 of azole anti-fungal drugs (Mtb strain H37Rv): 8 µg/mL |
| Fc1ccc2[nH]cc(CCc3ccncc3)c2c1 [Compound 41] | – | – | – | Kd (CYP121A1 [1]): 27.3 ± 4.8 µM |
| c1ccc2c(c1)OCCN2c1nccc(CCc2c[nH]c3ccccc23)n1 [Compound 61, 4-(4-(2-(1H-Indol-3-yl)ethyl)pyrimidin-2-yl)-3,4-dihydro-2H-benzo[b][1,4]oxazine] | 25 µM | 12.5 µM | 6.25 µM | Inhibition of CYP121A1 / production of mycocyclosin (CYP121A1 [2]): markedly reduced the production of mycocyclosin; MIC90 (Mtb H37Rv; converted from μM value, read-out: MIC90 against Mtb strain H37Rv): ~2.2 µg/mL; MIC90 (Mtb H37Rv; [10]): 6.25 µM; Activity against Mtb (Mtb H37Rv): moderate inhibitors |
| Oc1ccc2[nH]cc(CCc3ccnc(N4CCOCC4)n3)c2c1 [Compound 55, 3-(2-(2-Morpholinopyrimidin-4-yl)ethyl)-1H-indol-5-ol] | – | – | – | ΔTm at 1000 µM (Mtb CYP121A1 [3]): 0.5 °C |
| Clc1ccc2[nH]cc(CCc3ccncc3)c2c1 [Compound 8] | – | – | – | Kd (CYP121A1 [1]): 5.8 ± 0.7 µM |
| FC(F)(F)Oc1ccc2[nH]cc(CCc3ccnc(N4CCOCC4)n3)c2c1 [Compound 53, 4-(4-(2-(5-(Trifluoromethoxy)-1H-indol-3-yl)ethyl)pyrimidin-2-yl)morpholine] | 25 µM | 25 µM | 50 µM | Activity against Mtb (Mtb H37Rv): moderate inhibitors |
| c1ccc2c(CCc3nc4c(c(N5CCOCC5)n3)CNC4)c[nH]c2c1 [Compound 81, 4-(2-(2-(1H-Indol-3-yl)ethyl)-6,7-dihydro-5H-pyrrolo[3,4-d]pyrimidin-4-yl)morpholine hydrochloride] | – | – | – | ΔTm at 1000 µM (Mtb CYP121A1 [3]): 3.5 °C |
| c1ccc2c(CCc3nc4c(c(N5CCOCC5)n3)CCNC4)c[nH]c2c1 [Compound 83, 4-(2-(2-(1H-Indol-3-yl)ethyl)-5,6,7,8-tetrahydropyrido[3,4-d]pyrimidin-4-yl)morpholine hydrochloride] | – | – | – | ΔTm at 1000 µM (Mtb CYP121A1 [3]): 1 °C |
| c1ccc2c(CCc3ccnc(N4CCCOCC4)n3)c[nH]c2c1 [Compound 60, 4-(4-(2-(1H-Indol-3-yl)ethyl)pyrimidin-2-yl)-1,4-oxazepane] | 50 µM | 25 µM | 25 µM | Activity against Mtb (Mtb H37Rv): moderate inhibitors |
| Ic1ccc2[nH]cc(CCc3ccncc3)c2c1 [Compound 42, 5-Iodo-3-(2-(pyridin-4-yl)ethyl)-1H-indole] | – | – | – | Kd (CYP121A1 [1]): 3.2 ± 0.3 µM |
| Brc1ccc2c(c1)N(c1nccc(CCc3c[nH]c4ccccc34)n1)CCO2 [Compound 63, 4-(4-(2-(1H-Indol-3-yl)ethyl)pyrimidin-2-yl)-6-bromo-3,4-dihydro-2H-benzo[b][1,4]oxazine] | 50 µM | 25 µM | 50 µM | Activity against Mtb (Mtb H37Rv): moderate inhibitors |
| COc1ccc2[nH]cc(CCc3ccncc3)c2c1 [Compound 43] | – | – | – | Kd (CYP121A1 [1]): 105 ± 10 µM |

| SMILES | MIC90 (Mtb H37Rv; [7]) | MIC90 (Mtb H37Rv; [8]) | MIC90 (Mtb H37Rv; [9]) | further results |
| --- | --- | --- | --- | --- |
| Brc1ccc2[nH]cc(CCc3ccnc(N4CCOCC4)n3)c2c1 [Compound 21, 4-(4-(2-(5-Bromo-1H-indol-3-yl)ethyl)pyrimidin-2-yl)morpholine] | – | – | – | X-ray crystallographic screening result (CYP121A1 [4]): hits |
| FC(F)(F)Oc1ccc(-c2nccc(CCc3c[nH]c4ccccc34)n2)cc1 [Compound 34, 3-(2-(2-(4-(Trifluoromethoxy)phenyl)pyrimidin-4-yl)ethyl)-1H-indole] | 100 µM | 100 µM | 12.5 µM | MIC90 (Mtb H37Rv; [10]): 12.5 to 50 µM |
| COC1CN(c2nccc(CCc3c[nH]c4ccc(Br)cc34)n2)C1 [Compound 33, 5-Bromo-3-(2-(2-(3-methoxyazetidin-1-yl)pyrimidin-4-yl)ethyl)-1H-indole] | – | – | – | X-ray crystallographic screening result (CYP121A1 [4]): hits |
| COC1CN(c2nccc(CCc3c[nH]c4ccccc34)n2)C1 [Compound 31, 3-(2-(2-(3-Methoxyazetidin-1-yl)pyrimidin-4-yl)ethyl)-1H-indole] | 25 µM | 50 µM | 25 µM | Activity against Mtb (Mtb H37Rv): moderate inhibitors; X-ray crystallographic screening result (CYP121A1 [4]): hits |
| c1ccc2c(CCc3ccnc(N4CCSCC4)n3)c[nH]c2c1 [Compound 15, 4-(4-(2-(1H-Indol-3-yl)ethyl)pyrimidin-2-yl)thiomorpholine] | 100 µM | 200 µM | 25 µM | MIC90 (Mtb H37Rv; [10]): 12.5 to 50 µM |
| Brc1ccc2[nH]cc(CCc3ccnc(N4CCCO4)n3)c2c1 [Compound 30, 2-(4-(2-(5-Bromo-1H-indol-3-yl)ethyl)pyrimidin-2-yl)isoxazolidine] | 200 µM | 200 µM | 100 µM | – |
| Cn1cc(CCc2ccnc(N3CCOCC3)n2)c2ccccc21 [Compound 57, 4-(4-(2-(1-Methyl-1H-indol-3-yl)ethyl)pyrimidin-2-yl)morpholine] | 25 µM | 50 µM | 25 µM | Activity against Mtb (Mtb H37Rv): moderate inhibitors |
| Nc1[nH]nc(-c2ccc(O)cc2)c1-c1ccc(O)cc1 [Compound 45, reference compound] | – | – | – | Kd (Mtb CYP121A1 [5]): 20 to 25 µM; ΔTm at 1000 µM (Mtb CYP121A1 [3]): 1 °C |
| c1ccc2c(CCc3ccncc3)c[nH]c2c1 [Compound 7] | – | – | – | Kd (CYP121A1 [1]): 483 ± 76 µM; X-ray crystallographic screening result (CYP121A1 [4]): hits |
| CO[C@H]1/C=C/O[C@@]2(C)Oc3c(C)c(O)c4c(O)c(c(/C=N/N5CCN(C)CC5)c(O)c4c3C2=O)NC(=O)/C(C)=C\C=C\[C@H](C)[C@H](O)[C@@H](C)[C@@H](O)[C@@H](C)[C@H](OC(C)=O)[C@@H]1C [Rifampicin, reference compound] | 0.013 µM | 0.023 µM | 0.013 µM | – |
| c1ccc2c(CCc3nc4c(c(N5CC6CCC(C5)O6)n3)CNC4)c[nH]c2c1 [Compound 82, 3-(2-(2-(1H-Indol-3-yl)ethyl)-6,7-dihydro-5H-pyrrolo[3,4-d]pyrimidin-4-yl)-8-oxa-3-azabicyclo[3.2.1]octane hydrochloride] | – | – | – | ΔTm at 1000 µM (Mtb CYP121A1 [3]): 2.4 °C |
| COC1CN(c2nccc(CCc3c[nH]c4ccc(Cl)cc34)n2)C1 [Compound 32, 5-Chloro-3-(2-(2-(3-methoxyazetidin-1-yl)pyrimidin-4-yl)ethyl)-1H-indole] | 100 µM | 200 µM | 50 µM | MIC90 (Mtb H37Rv; [10]): 12.5 to 50 µM |
| c1ccc2c(CCc3ccncn3)c[nH]c2c1 [Compound 10] | – | – | – | ΔTm at 1000 µM (Mtb CYP121A1 [3]): 3.5 °C; X-ray crystallographic screening result (CYP121A1 [4]): hits |
| Clc1ccc(COC(Cn2ccnc2)c2ccc(Cl)cc2Cl)cc1 (centres unmarked) [econazole] | – | – | – | MIC90 of azole anti-fungal drugs (Mtb strain H37Rv): 8 µg/mL |
| c1ccc2c(CCc3ccnc(N4CCOCC4)n3)c[nH]c2c1 [Compound 14, 4-(4-(2-(1H-Indol-3-yl)ethyl)pyrimidin-2-yl)morpholine] | 25 µM | 25 µM | 12.5 µM | Soret band shift (416.5 nm) (CYP121A1 [1]; UV-Vis screen): lack of shift; Inhibition of CYP121A1 / production of mycocyclosin (CYP121A1 [2]): markedly reduced the production of mycocyclosin; Fold increase (CYP121A1 [6]): 1.5; MIC90 (Mtb H37Rv; [10]): 12.5 to 25 µM; Kd (Mtb CYP121A1 [5]): ~100 µM; X-ray crystallographic screening result (CYP121A1 [4]): hits |
| Clc1ccccc1C(c1ccccc1)(c1ccccc1)n1ccnc1 [clotrimazole] | – | – | – | MIC90 of azole anti-fungal drugs (Mtb strain H37Rv): 11 µg/mL |
| c1ccc2c(CCc3ccnc(N4CC5CCC(C4)O5)n3)c[nH]c2c1 [Compound 58, 3-(4-(2-(1H-Indol-3-yl)ethyl)pyrimidin-2-yl)-8-oxa-3-azabicyclo[3.2.1]octane] | 50 µM | 200 µM | 25 µM | Activity against Mtb (Mtb H37Rv): active, but showed much reduced potency in BSA rich medium |
